How the values were obtained:
[1] = test system: Cabbage Looper (Trichoplusia ni, TRIPNI); assay: Bioassay on Cabbage Looper (CL), 128-well diet tray assay; assay type: in vivo; details: 168 h, 50 μg/cm^2 on artificial diet, second instar larvae, 25° C., five to seven days, average of eight wells, read-out: CL % Control (or Mortality) rating
Experimental: (§1) Example A: Bioassays on Beet Armyworm (Spodoptera exigua, LAPHEG) (“BAW”) and Cabbage Looper (Trichoplusia ni, TRIPNI) (“CL”)
(§2) Certain molecules disclosed in this document were tested against BAW and CL using procedures described in the following examples. In the reporting of the results, the “BAW & CL Rating Table” was used (See Table Section).
Bioassays on CL were conducted using a 128-well diet tray assay. One to five second instar CL larvae were placed in each well (3 mL) of the diet tray that had been previously filled with 1 mL of artificial diet to which 50 μg/cm^2 of the test molecule (dissolved in 50 μL of 90:10 acetone-water mixture) had been applied (to each of eight wells) and then allowed to dry. Trays were covered with a clear self-adhesive cover, vented to allow gas exchange, and held at 25° C., 14:10 light-dark for five to seven days. Percent mortality was recorded for the larvae in each well; activity in the eight wells was then averaged. The results are indicated in the table entitled “Table ABC: Biological Results” (See Table Section).

[2] = test system: Beet Armyworm (Spodoptera exigua, LAPHEG); assay: Bioassay on Beet Armyworm (BAW), 128-well diet tray assay; assay type: in vivo; details: 168 h, 50 μg/cm^2 on artificial diet, second instar larvae, 25° C., five to seven days, average of eight wells, read-out: BAW % Control (or Mortality) rating
Experimental: as §1, §2
Bioassays on BAW were conducted using a 128-well diet tray assay. One to five second instar BAW larvae were placed in each well (3 mL) of the diet tray that had been previously filled with 1 mL of artificial diet to which 50 μg/cm^2 of the test molecule (dissolved in 50 μL of 90:10 acetone-water mixture) had been applied (to each of eight wells) and then allowed to dry. Trays were covered with a clear self-adhesive cover, vented to allow gas exchange, and held at 25° C., 14:10 light-dark for five to seven days. Percent mortality was recorded for the larvae in each well; activity in the eight wells was then averaged. The results are indicated in the table entitled “Table ABC: Biological Results” (See Table Section).

SMILES | mortality at 50 µg/cm2 [1] [%] | mortality at 50 µg/cm2 [2] [%]
Cc1ccc(Cl)c(N2C(=O)CS/C2=N\C(=O)Nc2ccc(/C=C/c3ncn(-c4ccc(OC(F)(F)F)cc4)n3)cc2)c1 [F44, 1-((Z)-3-(2-Chloro-5-methylphenyl)-4-oxothiazolidin-2-ylidene)-3-(4-((E)-2-(1-(4-(trifluoromethoxy)phenyl)-1H-1,2,4-triazol-3-yl)vinyl)phenyl)urea] | 50 to 100 | 50 to 100
CCCc1ccc(C)cc1N1C(=O)CS/C1=N\C(=O)Nc1ccc(/C=C/c2ncn(-c3ccc(OC(F)(F)F)cc3)n2)cc1 [F45, 1-((Z)-3-(5-Methyl-2-propylphenyl)-4-oxothiazolidin-2-ylidene)-3-(4-((E)-2-(1-(4-(trifluoromethoxy)phenyl)-1H-1,2,4-triazol-3-yl)vinyl)phenyl)urea] | 50 to 100 | 50 to 100
CCOc1ccc(C)cc1N1C(=O)CS/C1=N\C(=O)Nc1ccc(/C=C/c2ncn(-c3ccc(OC(F)(F)F)cc3)n2)cc1 [F46, 1-((Z)-3-(2-Ethoxy-5-methylphenyl)-4-oxothiazolidin-2-ylidene)-3-(4-((E)-2-(1-(4-(trifluoromethoxy)phenyl)-1H-1,2,4-triazol-3-yl)vinyl)phenyl)urea] | 50 to 100 | 50 to 100
Cc1cc(N2C(=O)CS/C2=N\C(=O)Nc2ccc(/C=C/c3ncn(-c4ccc(OC(F)(F)F)cc4)n3)cc2)c(C(C)C)cc1F [F47, 1-((Z)-3-(4-Fluoro-2-isopropyl-5-methylphenyl)-4-oxothiazolidin-2-ylidene)-3-(4-((E)-2-(1-(4-(trifluoromethoxy)phenyl)-1H-1,2,4-triazol-3-yl)vinyl)phenyl)urea] | 50 to 100 | 50 to 100
CCC(C)Oc1ccc(C)cc1N1C(=O)CS/C1=N\C(=O)Nc1ccc(/C=C/c2ncn(-c3ccc(OC(F)(F)F)cc3)n2)cc1 (stereo not shown) [F48, 1-((Z)-3-(2-(sec-Butoxy)-5-methylphenyl)-4-oxothiazolidin-2-ylidene)-3-(4-((E)-2-(1-(4-(trifluoromethoxy)phenyl)-1H-1,2,4-triazol-3-yl)vinyl)phenyl)urea] | 50 to 100 | 50 to 100
Cc1ccc(OC(C)C)c(N2C(=O)CS/C2=N\C(=O)Nc2ccc(/C=C/c3ncn(-c4ccc(OC(F)(F)F)cc4)n3)cc2)c1 [F49, 1-((Z)-3-(2-Isopropoxy-5-methylphenyl)-4-oxothiazolidin-2-ylidene)-3-(4-((E)-2-(1-(4-(trifluoromethoxy)phenyl)-1H-1,2,4-triazol-3-yl)vinyl)phenyl)urea] | 50 to 100 | 50 to 100
Cc1ccc(OC(F)(F)F)c(N2C(=O)CS/C2=N\C(=O)Nc2ccc(/C=C/c3ncn(-c4ccc(OC(F)(F)F)cc4)n3)cc2)c1 [F50, 1-((Z)-3-(5-Methyl-2-(trifluoromethoxy)phenyl)-4-oxothiazolidin-2-ylidene)-3-(4-((E)-2-(1-(4-(trifluoromethoxy)phenyl)-1H-1,2,4-triazol-3-yl)vinyl)phenyl)urea] | 50 to 100 | 50 to 100
Cc1ccc(OCC(F)(F)F)c(N2C(=O)CS/C2=N\C(=O)Nc2ccc(/C=C/c3ncn(-c4ccc(OC(F)(F)F)cc4)n3)cc2)c1 [F51, 1-((Z)-3-(5-Methyl-2-(2,2,2-trifluoroethoxy)phenyl)-4-oxothiazolidin-2-ylidene)-3-(4-((E)-2-(1-(4-(trifluoromethoxy)phenyl)-1H-1,2,4-triazol-3-yl)vinyl)phenyl)urea] | 50 to 100 | 50 to 100
Cc1ccc(OC(C)(C)C)c(N2C(=O)CS/C2=N\C(=O)Nc2ccc(/C=C/c3ncn(-c4ccc(OC(F)(F)F)cc4)n3)cc2)c1 [F52, 1-((Z)-3-(2-(tert-Butoxy)-5-methylphenyl)-4-oxothiazolidin-2-ylidene)-3-(4-((E)-2-(1-(4-(trifluoromethoxy)phenyl)-1H-1,2,4-triazol-3-yl)vinyl)phenyl)urea] | 50 to 100 | 50 to 100
COCc1ccc(C)cc1N1C(=O)CS/C1=N\C(=O)Nc1ccc(/C=C/c2ncn(-c3ccc(OC(F)(F)F)cc3)n2)cc1 [F53, 1-((Z)-3-(2-(Methoxymethyl)-5-methylphenyl)-4-oxothiazolidin-2-ylidene)-3-(4-((E)-2-(1-(4-(trifluoromethoxy)phenyl)-1H-1,2,4-triazol-3-yl)vinyl)phenyl)urea] | 50 to 100 | 50 to 100
COC(=O)c1cc(/C=C/c2ncn(-c3ccc(OC(F)(F)F)cc3)n2)ccc1NC(=O)/N=C1\SCC(=O)N1c1cc(C)ccc1C(C)C [F54, Methyl 2-(3-((Z)-3-(2-isopropyl-5-methylphenyl)-4-oxothiazolidin-2-ylidene)ureido)-5-((E)-2-(1-(4-(trifluoromethoxy)phenyl)-1H-1,2,4-triazol-3-yl)vinyl)benzoate] | 50 to 100 | 50 to 100
Cc1ccc(C(C)C)c(N2C(=O)CS/C2=N\C(=O)Nc2ccc(/C=C/c3ncn(-c4ccc(OC(F)(F)F)cc4)n3)cc2F)c1 [F55, 1-(2-Fluoro-4-((E)-2-(1-(4-(trifluoromethoxy)phenyl)-1H-1,2,4-triazol-3-yl)vinyl)phenyl)-3-((Z)-3-(2-isopropyl-5-methylphenyl)-4-oxothiazolidin-2-ylidene)urea] | 50 to 100 | 50 to 100
Cc1ccc(C(C)C)c(N2C(=O)CS/C2=N\C(=O)Nc2ccc(/C=C/c3ncn(-c4ccc(OC(F)(F)F)cc4)n3)cc2Cl)c1 [F56, 1-(2-chloro-4-((E)-2-(1-(4-(trifluoromethoxy)phenyl)-1H-1,2,4-triazol-3-yl)vinyl)phenyl)-3-((Z)-3-(2-isopropyl-5-methylphenyl)-4-oxothiazolidin-2-ylidene)urea] | 50 to 100 | 50 to 100
Cc1ccc(C(C)C)c(N2C(=O)CS/C2=N\C(=O)Nc2c(F)cc(/C=C/c3ncn(-c4ccc(OC(F)(F)F)cc4)n3)cc2F)c1 [F57, 1-(2,6-difluoro-4-((E)-2-(1-(4-(trifluoromethoxy)phenyl)-1H-1,2,4-triazol-3-yl)vinyl)phenyl)-3-((Z)-3-(2-isopropyl-5-methylphenyl)-4-oxothiazolidin-2-ylidene)urea] | 50 to 100 | 50 to 100
COc1cc(/C=C/c2ncn(-c3ccc(OC(F)(F)F)cc3)n2)ccc1NC(=O)/N=C1\SCC(=O)N1c1cc(C)ccc1C(C)C [F58, 1-((Z)-3-(2-isopropyl-5-methylphenyl)-4-oxothiazolidin-2-ylidene)-3-(2-methoxy-4-((E)-2-(1-(4-(trifluoromethoxy)phenyl)-1H-1,2,4-triazol-3-yl)vinyl)phenyl)urea] | 50 to 100 | 50 to 100
COCc1ccc(C)cc1N1C(=O)CS/C1=N\C(=O)Nc1ccc(/C=C/c2ncn(-c3ccc(OC(F)(F)F)cc3)n2)cc1F [F59, 1-(2-Fluoro-4-((E)-2-(1-(4-(trifluoromethoxy)phenyl)-1H-1,2,4-triazol-3-yl)vinyl)phenyl)-3-((Z)-3-(2-(methoxymethyl)-5-methylphenyl)-4-oxothiazolidin-2-ylidene)urea] | 50 to 100 | 50 to 100
Cc1ccc(C(C)C)c(N2C(=O)CS/C2=N\C(=O)Nc2ccc(/C=C/c3ncn(-c4ccc(OC(F)(F)F)cc4)n3)c(F)c2)c1 [F61, 1-(3-fluoro-4-((E)-2-(1-(4-(trifluoromethoxy)phenyl)-1H-1,2,4-triazol-3-yl)vinyl)phenyl)-3-((Z)-3-(2-isopropyl-5-methylphenyl)-4-oxothiazolidin-2-ylidene)urea] | 50 to 100 | 50 to 100
Cc1ccc(C(C)C)c(N2C(=O)CS/C2=N\C(=O)Nc2ccc(/C=C/c3ncn(-c4ccc(OC(F)(F)F)cc4)n3)cc2C(F)(F)F)c1 [F62, 1-((Z)-3-(2-isopropyl-5-methylphenyl)-4-oxothiazolidin-2-ylidene)-3-(4-((E)-2-(1-(4-(trifluoromethoxy)phenyl)-1H-1,2,4-triazol-3-yl)vinyl)-2-(trifluoromethyl)phenyl)urea] | 50 to 100 | 50 to 100
CCCc1ccc(C)cc1N1C(=O)CS/C1=N\C(=O)Nc1ccc(/C=C/c2ncn(-c3ccc(OC(F)(F)F)cc3)n2)cc1F [F63, 1-(2-Fluoro-4-((E)-2-(1-(4-(trifluoromethoxy)phenyl)-1H-1,2,4-triazol-3-yl)vinyl)phenyl)-3-((Z)-3-(5-methyl-2-propylphenyl)-4-oxothiazolidin-2-ylidene)urea] | 50 to 100 | 50 to 100
CC(C)c1ccc(C(F)(F)F)cc1N1C(=O)CS/C1=N\C(=O)Nc1ccc(/C=C/c2ncn(-c3ccc(OC(F)(F)F)cc3)n2)cc1F [F64, 1-(2-fluoro-4-((E)-2-(1-(4-(trifluoromethoxy)phenyl)-1H-1,2,4-triazol-3-yl)vinyl)phenyl)-3-((Z)-3-(2-isopropyl-5-(trifluoromethyl)phenyl)-4-oxothiazolidin-2-ylidene)urea] | 50 to 100 | 50 to 100

Source: patent publication US9661854B2, “Molecules having pesticidal utility, and intermediates, compositions, and processes, related thereto” (Dow AgroSciences LLC, priority 2015, dated 2017)
